According to patent publication US11274083B2, “Substituted thiophenyl uracils, salts thereof and the use thereof as herbicidal agents” (Syngenta Crop Protection AG, priority 2017, dated 2022):

Tests used:
Type in all cases: in vivo
[1] = system: Amaranthus retroflexus; assay: Herbicidal action post-emergence, greenhouse pot test; conditions: application rate 20 g/ha
Description: (§1) Seeds of mono- and dicotyledonous weed plants and crop plants were laid out in sandy loam soil in plastic or wood-fiber pots, covered with soil and grown under controlled growth conditions in a greenhouse. 2 to 3 weeks after sowing, the trial plants were treated at the one-leaf stage. The compounds of the invention formulated in the form of wettable powders (WP) or as emulsion concentrates (EC) were then sprayed onto the green parts of the plant as an aqueous suspension or emulsion with addition of 0.5% additive at a water application rate equivalent to 600 L/ha. After the trial plants had stood for about 3 weeks in the greenhouse, under optimal growth conditions, the effect of the preparations was scored visually by comparison with untreated controls. For example, 100% efficacy=plants have died, 0% efficacy=like control plants. Tables A1 to A16 below show the efficacies of selected compounds of the general formula (I) according to tables I.1 to I.50 on various harmful plants and an application rate corresponding to 80 g/ha or lower that were obtained by the aforementioned trial method.

[2] = system: Viola tricolor; assay: as above; conditions: application rate 20 g/ha
Description: as §1

[3] = system: Veronica persica; assay: as above
Description: as §1

[4] = system: Matricaria inodora; assay: as above; conditions: application rate 20 g/ha
Description: as §1

[5] = system: Abutilon theophrasti; assay: as above; conditions: application rate 20 g/ha
Description: as §1

[6] = system: Stellaria media; assay: as above; conditions: application rate 20 g/ha
Description: as §1

[7] = system: Echinochloa crus-galli; assay: as above; conditions: application rate 20 g/ha
Description: as §1

[8] = system: Polygonum convolvulus; assay: as above
Description: as §1

[9] = system: Setaria viridis; assay: as above; conditions: application rate 20 g/ha
Description: as §1

[10] = system: Pharbitis purpurea; assay: as above
Description: as §1

[11] = system: Digitaria sanguinalis; assay: as above; conditions: application rate 20 g/ha
[12] = system: Triticum aestivum; assay: Crop compatibility post-emergence, greenhouse pot test
Description: as §1, with “plants.” for “plants. Tables A1 to A16 below show the efficacies of selected compounds of the general formula (I) according to tables I.1 to I.50 on various harmful plants and an application rate corresponding to 80 g/ha or lower that were obtained by the aforementioned trial method.”
(§2) Crop plant compatibilities were also scored correspondingly.
(§3) The effects observed are reported here on selected crop plants by comparison, with the untreated controls (values in %).

[13] = system: Oryza sativa; assay: as above
Description: as §1, with “plants.” for “plants. Tables A1 to A16 below show the efficacies of selected compounds of the general formula (I) according to tables I.1 to I.50 on various harmful plants and an application rate corresponding to 80 g/ha or lower that were obtained by the aforementioned trial method.”
as §2, §3

SMILES	Amaranthus retroflexus (Efficacy in %) [1] [%]	Viola tricolor (Efficacy in %) [2] [%]	Veronica persica (Efficacy in %) ([3]; application rate 20 g/ha) [%]	Matricaria inodora (Efficacy in %) [4] [%]	Abutilon theophrasti (Efficacy in %) [5] [%]	Stellaria media (Efficacy in %) [6] [%]	Echinochloa crus-galli (Efficacy in %) [7] [%]	Polygonum convolvulus (Efficacy in %) ([8]; application rate 20 g/ha) [%]	Setaria viridis (Efficacy in %) [9] [%]	Pharbitis purpurea (Efficacy in %) ([10]; application rate 20 g/ha) [%]	Digitaria sanguinalis (Efficacy in %) [11] [%]	Triticum aestivum (Efficacy in %) ([12]; application rate 5 g/ha) [%]	Oryza sativa (Efficacy in %) ([13]; application rate 5 g/ha) [%]	Oryza sativa (Efficacy in %) ([13]; application rate 20 g/ha) [%]	Triticum aestivum (Efficacy in %) ([12]; application rate 20 g/ha) [%]	Veronica persica (Efficacy in %) ([3]; application rate 5 g/ha) [%]	Polygonum convolvulus (Efficacy in %) ([8]; application rate 5 g/ha) [%]	Pharbitis purpurea (Efficacy in %) ([10]; application rate 5 g/ha) [%]
CCCCOC(=O)COC(=O)C(C)Sc1cc(-n2c(=O)cc(C(F)(F)F)n(C)c2=O)c(F)cc1Cl (stereo not shown) [I.1-51]	100	100	100	100	100	100	100	100	100	100	90	0						
CC(Sc1cc(-n2c(=O)cc(C(F)(F)F)n(C)c2=O)c(F)cc1Cl)C(=O)OCC1CCC(=O)O1 (stereo not shown) [I.1-145]													20					
CCOC(=O)C1(COC(=O)C(C)Sc2cc(-n3c(=O)cc(C(F)(F)F)n(C)c3=O)c(F)cc2Cl)CCOCC1 (stereo not shown) [I.1-293]	100	100	100	100	100	100	90		90		100							
CCC(Sc1cc(-n2c(=O)cc(C(F)(F)F)n(C)c2=O)c(F)cc1Cl)C(=O)OCC1CCC(=O)O1 (stereo not shown) [I.2-145, (5-Oxotetrahydrofuran-2-yl)methyl 2-({2-chloro-4-fluoro-5-[3-methyl-2,6-dioxo-4-(trifluoromethyl)-3,6-dihydropyrimidin-1(2H)-yl]phenyl}sulfanyl)butanoate]	100	100	100	100	100	100	100	100	100		100			0	20			
CCOC(=O)CCOC(=O)C(CC(C)C)Sc1cc(-n2c(=O)cc(C(F)(F)F)n(C)c2=O)c(F)cc1Cl (stereo not shown) [I.4-3, 3-Ethoxy-3-oxopropyl 2-({2-chloro-4-fluoro-5-[3-methyl-2,6-dioxo-4-(trifluormethyl)-3,6-dihydropyrimidin-1(2H)-yl]phenyl}sulfanyl)-4-methylpentanoate]	100	100	80	80	100				90									
CCOC(=O)COC(=O)C(CC(C)C)Sc1cc(-n2c(=O)cc(C(F)(F)F)n(C)c2=O)c(F)cc1Cl (stereo not shown) [I.4-43]	100	100	100	90	100	80		100						10	10			
CCOC(=O)CCOC(=O)C(Sc1cc(-n2c(=O)cc(C(F)(F)F)n(C)c2=O)c(F)cc1Cl)C(C)C (stereo not shown) [I.6-3, 3-Ethoxy-3-oxopropyl 2-({2-chloro-4-fluoro-5-[3-methyl-2,6-dioxo-4-(trifluoromethyl)-3,6-dihydropyrimidin-1(2H)-yl]phenyl}sulfanyl)-3-methylbutanoate]	100	100	100	100	100	100			100		100			20				
CCOC(=O)COC(=O)C(Sc1cc(-n2c(=O)cc(C(F)(F)F)n(C)c2=O)c(F)cc1Cl)C(C)C (stereo not shown) [I.6-43, 2-Ethoxy-2-oxoethyl 2-({2-chloro-4-fluoro-5-[3-methyl-2,6-dioxo-4-(trifluoromethyl)-3,6-dihydropyrimidin-1(2H)-yl]phenyl}sulfanyl)-3-methylbutanoate]		100			100	90								0		100		
CCOC(=O)COC(=O)C(COC)Sc1cc(-n2c(=O)cc(C(F)(F)F)n(C)c2=O)c(F)cc1Cl (stereo not shown) [I.7-43]											100							
CCOC(=O)COC(=O)CSc1cc(-n2c(=O)cc(C(F)(F)F)n(C)c2=O)c(F)cc1Cl [I.8-43]	100	100	100	100	100	80	90	100	100	100		10						
CC(C)OC(=O)COC(=O)CSc1cc(-n2c(=O)cc(C(F)(F)F)n(C)c2=O)c(F)cc1Cl [I.8-44]	100	100	100	100	100	100			100	100		20					100	
Cn1c(C(F)(F)F)cc(=O)n(-c2cc(SCC(=O)OCC(=O)OCc3ccccc3)c(Cl)cc2F)c1=O [I.8-46]	100	100	100	100	100	100	90	100	100	100		20						
CCCCOC(=O)COC(=O)CSc1cc(-n2c(=O)cc(C(F)(F)F)n(C)c2=O)c(F)cc1Cl [I.8-51]	100	100	100	100	100		90	100	100	100	100			0	20			
CCOC(=O)CCOC(=O)C(C)Sc1cc(-n2c(=O)c(C)c(C(F)(F)F)n(C)c2=O)c(F)cc1Cl (stereo not shown) [I.11-3]		90		90	100	100	100					10		10				
CCOC(=O)CCOC(=O)C(CC)Sc1cc(-n2c(=O)c(C)c(C(F)(F)F)n(C)c2=O)c(F)cc1Cl (stereo not shown) [I.12-3]	100	100	100		100	100	100	100	100		100			0	20			100
CCCCC(Sc1cc(-n2c(=O)cc(C(F)(F)F)n(C)c2=O)c(F)cc1Cl)C(=O)OCCC(=O)OCC (stereo not shown) [I.47-3]	100	100	100	100	100		80	100	100	100	100			20	20			
